For one test, the system named is ChREBP. The test can be described thus: Gel shift of purified ChREBP after incubation with PKA/PP2A in vitro. It is filed as biochemical, rat. The settings on record: okadaic acid 10 nM. Here is the method: Gel shift assay. Gel mobility shift assays were performed as described by Liu et al. (Liu et al. (1993) J Biol Chem 268, 12787-12795). Double-stranded oligonucleotides (Table 1) were prepared by mixing equal amounts of the complementary single-stranded DNAs in 50 mM NaCl, heating to 70° C. for 15 min, and cooling to room temperature. The annealed oligonucleotides were labeled with ^32P in the presence of [γ^32P]-ATP (Amersham Pharmacia) and T4 polynucleotide kinase (New England Biolabs). Binding reactions were carried out in reaction mixture containing 20 mM Hepes (pH 7.9), 50 mM KCl, 5 mM DTT, 0.2 mM EDTA, 0.5 mM PMSF, 10% glycerol, 1 μg/μl of poly(dI-dC) (Amersham Pharmacia) and 1 μg/μl of nuclear extract. The reaction mixture was incubated at room temperature for 30 min and DNA-protein complexes were separated by electrophoresis in a 4.5% nondenaturing polyacrylamide gel.
Purified ChREBP was incubated with PKA and/or PP2A in vitro and measured by gel-shift analysis with the [^32P]-radiolabeled WT oligonucleotide. Purified ChREBP was incubated for 20 min with ATP (1 mM), PKA (0.1 U/μl), 0.2 U/μl PKI, 0.025 U/μl PP2A and the PP2A inhibitor, okadaic acid (10 nM).

In test [1] the target is T1, cytosolic Xu-5-P activated PPase (Rattus norvegicus, UniProt P63331).
T1 construct: from tissue; host or cells: rat liver cytosolic extract, DEAE-cellulose then Mono Q
The test can be described thus: Protein phosphatase assay, cytosolic Xu-5-P activated PPase of liver. It is filed as biochemical. The settings on record: for inhibition of cytosolic PPase (MonoQ eluate): okadaic acid concentration not stated (below 10 nM). Here is the method:
Liver was homogenized in a motor-driven Potter-Elvehjem homogenizer in 1 volume of extraction buffer containing 10 mM Hepes (pH 7.9), 10 mM KCl, 0.1 mM EDTA, 0.74 mM spermidine, 0.25 M sucrose, 50 mM imidazole, 1 mM dithiothreitol (DTT), 4 mM phenylmethanesulfonyl fluoride, and 1 mM benzamidine, and the extract was centrifuged at 10,000×g for 30 min.
(§1) Synthetic peptides corresponding to amino acids #187-201 ([…] “P1” peptide) (SEQ ID NO:64), #556-573 ([…], “P4” peptide) (SEQ ID NO:65), and #655-674 ([…]; “P3” peptide) (SEQ ID NO:66), of ChREBP were prepared by the Peptide Synthesis Service of University of Texas Southwestern Medical Center. These peptides were phosphorylated by 10 U of PKA for 6 h at 30° C. P4 peptide corresponding to 556-573 ([…]) (SEQ ID NO:65), was phosphorylated by 10 U of AMPK for 5 h at 30° C. The reaction mixtures were passed through on a Dowex AG1X8 column (0.5 cm×5 cm) which had been equilibrated with 30% acetic acid to remove residual [^32P]-ATP. The labeled peptides in the pass through fraction were lyophilized.
(§2) Protein phosphatase activity was determined by the method of Deana et al (Deana et al. (1990) Biochem, Biophys. Acta. 1051: 199-202). The reaction mixture contained in a final volume of 50 μ1,20 mM MOPS, pH 7.0, 1 mM DTT, 25 μg of BSA, and ^32P-labeled substrate for 15 min at 30° C. The reaction was terminated by the addition of 10% trichloroacetic acid. Phosphate released was converted to a phosphomolybdic complex followed by organic solvent (isobutyl alcohol:heptane, 1:1) extraction of the complex. The reaction mixture was mixed thoroughly and centrifuged. An aliquot of the top layer was then added to 5 ml scintillation fluid and counted. One unit of protein phosphatase is defined as that amount which catalyzes the release of 1.0 μmol of ^32P/min at 30° C.
(§3) These peptides were assayed with Mono Q purified cytosolic and nuclear PPases in the presence and absence of 50 μM Xu-5-P.

In test [2] the target is T2, nuclear Xu-5-P activated PPase (Rattus norvegicus, UniProt P63331).
T2 construct: from tissue; host or cells: rat liver nuclear extract, DEAE-cellulose then Mono Q
The test can be described thus: Protein phosphatase assay, nuclear Xu-5-P activated PPase of liver. It is filed as biochemical. The note with it: read-out: inhibition of nuclear Xu-5-P-activated PPase (Mono Q eluate); for inhibition at 0.001 µM: 1 nM okadaic acid, P3 substrate. Here is the method:
Liver nuclear extracts were prepared as described in Example 1.
as §1, §2, §3

A further test deals with PP2A (Homo sapiens, UniProt P67775). The note with it: cited from earlier work.

Data on one molecule can be found in US20030124590A1, “Carbohydrate response element binding protein and uses thereof” (priority 2001, published 2003).

Read-outs that look alike come from different tables or passages of the source.

T2 sequence (P63331 whole entry): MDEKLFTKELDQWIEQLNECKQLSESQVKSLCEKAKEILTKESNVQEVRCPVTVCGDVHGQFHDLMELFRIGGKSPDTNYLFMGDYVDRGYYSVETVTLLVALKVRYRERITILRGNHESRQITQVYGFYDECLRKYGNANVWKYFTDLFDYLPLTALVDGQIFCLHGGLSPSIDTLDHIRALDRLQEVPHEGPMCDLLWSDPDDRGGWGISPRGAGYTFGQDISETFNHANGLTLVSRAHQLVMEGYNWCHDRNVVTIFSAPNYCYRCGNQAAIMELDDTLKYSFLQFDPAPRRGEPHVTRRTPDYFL
T2 sequence (P56932 whole entry partner): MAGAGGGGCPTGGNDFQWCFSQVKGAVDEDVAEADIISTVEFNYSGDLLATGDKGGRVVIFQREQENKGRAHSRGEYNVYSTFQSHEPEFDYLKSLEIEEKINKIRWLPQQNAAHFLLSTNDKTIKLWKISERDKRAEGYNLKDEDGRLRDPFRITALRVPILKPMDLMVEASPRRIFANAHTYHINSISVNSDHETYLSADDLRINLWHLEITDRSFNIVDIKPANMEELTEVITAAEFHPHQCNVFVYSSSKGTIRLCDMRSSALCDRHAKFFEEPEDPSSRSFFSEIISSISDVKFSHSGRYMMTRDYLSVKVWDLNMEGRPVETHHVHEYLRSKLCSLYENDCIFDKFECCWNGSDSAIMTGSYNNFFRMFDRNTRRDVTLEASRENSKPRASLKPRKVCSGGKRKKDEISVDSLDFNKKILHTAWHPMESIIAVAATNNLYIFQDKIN
T2 sequence (Q5XI34 1-589 partner): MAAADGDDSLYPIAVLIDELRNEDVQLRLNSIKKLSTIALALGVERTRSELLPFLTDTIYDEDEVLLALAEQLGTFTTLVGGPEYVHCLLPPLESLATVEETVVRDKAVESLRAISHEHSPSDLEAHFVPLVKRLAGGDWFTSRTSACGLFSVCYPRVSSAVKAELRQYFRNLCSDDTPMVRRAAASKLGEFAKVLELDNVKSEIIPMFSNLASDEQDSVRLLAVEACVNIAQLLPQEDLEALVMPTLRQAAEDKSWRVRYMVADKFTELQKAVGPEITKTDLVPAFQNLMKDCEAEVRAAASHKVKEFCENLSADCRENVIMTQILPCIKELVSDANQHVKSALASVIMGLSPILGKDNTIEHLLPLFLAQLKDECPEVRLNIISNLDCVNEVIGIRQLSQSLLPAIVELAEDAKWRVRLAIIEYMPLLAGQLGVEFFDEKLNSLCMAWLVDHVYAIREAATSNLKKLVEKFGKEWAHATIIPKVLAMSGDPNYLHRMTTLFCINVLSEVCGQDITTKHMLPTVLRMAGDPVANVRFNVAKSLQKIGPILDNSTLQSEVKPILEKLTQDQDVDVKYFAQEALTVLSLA
T1 sequence (P63331 whole entry): as the sequence (P63331 whole entry) above
T1 sequence (P56932 whole entry partner): as the sequence (P56932 whole entry partner) above
T1 sequence (Q5XI34 1-589 partner): as the sequence (Q5XI34 1-589 partner) above
Chain of PP2A (P67775 whole entry): as the sequence (P63331 whole entry) above, with L5V counted along it

As to `C=C1[C@@H](O)[C@@H]2O[C@]3(CC[C@H](/C=C/[C@@H](C)[C@@H]4CC(C)=C[C@@]5(O[C@H](C[C@@](C)(O)C(=O)O)CC[C@H]5O)O4)O3)CC[C@H]2O[C@@H]1[C@@H](O)C[C@H](C)[C@H]1O[C@@]2(CCCCO2)CC[C@H]1C` [okadaic acid], the “reactivation of phosphorylated ChREBP by PP2A” value in the test with ChREBP was “blocked”. Further, the “inhibition of cytosolic PPase (MonoQ eluate)” value in test [1] (absence of Xu-5-P) was “approximately 65%”; in test [1] (presence of Xu-5-P), roughly 50%. Moreover, the “inhibition of cytosolic Xu-5-P activated PPase (in words)” value in test [1] (okadaic acid 10 nM (absence and presence of Xu-5-P), cantharidic acid 500 nM, deltamethrin 300 nM) was “completely”. Moreover, the inhibition at 0.001 µM amounted to 63% in test [2] (absence of Xu-5-P) and 70% in test [2] (presence of Xu-5-P). For the same molecule, in test [2] (10 nM okadaic acid), the inhibition at 0.01 µM was greater than 95%. The concentration for half-maximal inhibition (IC50) at PP2A was 1 nM.
